The record followed here is patent US8993756B2 (Merck Sharp & Dohme Corp., priority 2011, dated 2015).

The target in one experiment is JAK3 (Homo sapiens (Human), UniProt P52333). The experiment can be described thus: Jak Biochemical HTRF Assay (JAK3). To be noted: recombinant GST-tagged catalytic domain, [ATP] 2.9 μM.
For the next experiment, the target named is JAK2 (Homo sapiens (Human), UniProt O60674). The experiment can be described thus: Jak Biochemical HTRF Assay (JAK2). To be noted: recombinant GST-tagged catalytic domain, [ATP] 8.5 μM.
Chain of JAK2 (O60674 849-1124): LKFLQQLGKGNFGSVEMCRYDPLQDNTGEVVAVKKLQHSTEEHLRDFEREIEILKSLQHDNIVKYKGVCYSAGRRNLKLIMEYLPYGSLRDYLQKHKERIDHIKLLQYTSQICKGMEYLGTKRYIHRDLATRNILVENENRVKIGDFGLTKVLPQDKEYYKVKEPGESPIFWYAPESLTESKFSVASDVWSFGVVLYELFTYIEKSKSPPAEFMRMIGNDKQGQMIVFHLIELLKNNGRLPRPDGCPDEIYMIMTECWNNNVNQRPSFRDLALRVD

Chain of JAK3 (P52333 822-1111): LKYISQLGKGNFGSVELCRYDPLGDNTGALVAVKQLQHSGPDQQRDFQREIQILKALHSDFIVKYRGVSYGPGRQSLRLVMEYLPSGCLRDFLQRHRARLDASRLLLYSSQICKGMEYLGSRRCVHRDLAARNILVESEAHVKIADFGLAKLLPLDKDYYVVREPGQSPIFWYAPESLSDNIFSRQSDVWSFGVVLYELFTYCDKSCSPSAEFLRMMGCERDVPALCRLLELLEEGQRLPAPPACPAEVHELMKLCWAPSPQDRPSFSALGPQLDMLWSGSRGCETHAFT

`CCOC(=O)c1c[nH]c2ncnc(-c3cccc(NC(=O)/C=C/c4ccco4)c3)c12` [Example 5-32, ethyl 4-(3-{[(2E)-3-furan-2-ylprop-2-enoyl]amino}phenyl)-7H-pyrrolo[2,3-d]pyrimidine-5-carboxylate]: the values for the IC50 at JAK3 (given as range class) and on JAK2 (given as range class) were 10 to 500 nM and > 500 nM, respectively.

With `CC/C=C/C(=O)Nc1cccc(-c2ncnc3[nH]cc(C(=O)OCC)c23)c1` [Example 5-33, ethyl 4-{3-[(2E)-pent-2-enoylamino]phenyl}-7H-pyrrolo[2,3-d]pyrimidine-5-carboxylate], the IC50 at JAK3 (given as range class) is 10 to 500 nM; at JAK2 (given as range class), > 500 nM.

As to `CCOC(=O)c1c[nH]c2ncnc(-c3cccc(NC(=O)/C=C(/C)C(F)(F)F)c3)c12` [Example 5-34, ethyl 4-(3-{[(2Z)-4,4,4-trifluoro-3-methylbut-2-enoyl]amino}phenyl)-7H-pyrrolo[2,3-d]pyrimidine-5-carboxylate], the IC50 was 1.9 nM at JAK3 and > 1500 nM at JAK2.

As to `CCOC(=O)c1c[nH]c2ncnc(-c3cccc(NC(=O)C4=CCCCC4)c3)c12` [Example 5-35, ethyl 4-{3-[(cyclohex-1-en-1-ylcarbonyl)amino]phenyl}-7H-pyrrolo[2,3-d]pyrimidine-5-carboxylate], the IC50 was 10 to 500 nM at JAK3 (given as range class) and > 500 nM on JAK2 (given as range class).

Regarding `CCOC(=O)c1c[nH]c2ncnc(-c3cccc(NC(=O)C4=CC(=O)CC4)c3)c12` [Example 5-36, ethyl 4-(3-{[(3-oxocyclopent-1-en-1-yl)carbonyl]amino}phenyl)-7H-pyrrolo[2,3-d]pyrimidine-5-carboxylate], the IC50 on JAK3 is 0.14 nM; on JAK2, > 1500 nM.

As for `CCOC(=O)c1c[nH]c2ncnc(-c3cccc(NC(=O)C=C4CCCC4)c3)c12` [Example 5-37, ethyl 4-{3-[(cyclopentylideneacetyl)amino]phenyl}-7H-pyrrolo[2,3-d]pyrimidine-5-carboxylate], the IC50 on JAK3 (given as range class) was 10 to 500 nM; on JAK2 (given as range class), > 500 nM.

As to `C/C=C(/OC)C(=O)Nc1cccc(-c2ncnc3[nH]cc(C(=O)OCC)c23)c1` [Example 5-38, ethyl 4-(3-{[(2E)-2-methoxybut-2-enoyl]amino}phenyl)-7H-pyrrolo[2,3-d]pyrimidine-5-carboxylate], the IC50 was 10 to 500 nM at JAK3 (given as range class) and > 500 nM on JAK2 (given as range class).

As for `CCOC(=O)c1c[nH]c2ncnc(-c3cccc(NC(=O)/C=C/c4nccs4)c3)c12` [Example 5-39, ethyl 4-(3-{[(2E)-3-(1,3-thiazol-2-yl)prop-2-enoyl]amino}phenyl)-7H-pyrrolo[2,3-d]pyrimidine-5-carboxylate], the figures for the IC50 on JAK3 and at JAK2 were 3.9 nM and 496 nM, respectively.

With `CCOC(=O)c1c[nH]c2ncnc(-c3cccc(NC(=O)C4=COCC4)c3)c12` [Example 5-40], the results for the half-maximal inhibitory concentration (IC50) at JAK3 (given as range class) and at JAK2 (given as range class) were 10 to 500 nM and > 500 nM, respectively.

For the molecule `C=C(CN1CCOCC1)C(=O)Nc1cccc(-c2ncnc3[nH]cc(C(=O)OCC)c23)c1` [Example 5-41, ethyl 4-(3-{[2-(morpholin-4-ylmethyl)acryloyl]amino}phenyl)-7H-pyrrolo[2,3-d]pyrimidine-5-carboxylate], the values for the IC50 at JAK3 and at JAK2 were 0.66 nM and > 1500 nM, respectively.

For `CCOC(=O)c1c[nH]c2ncnc(-c3cccc(NC(=O)/C=C/C(F)(F)F)c3)c12` [Example 5-42, ethyl 4-(3-{[(2E)-4,4,4-trifluorobut-2-enoyl]amino}phenyl)-7H-pyrrolo[2,3-d]pyrimidine-5-carboxylate], the figures for the IC50 on JAK3 (given as range class) and on JAK2 (given as range class) were 10 to 500 nM and > 500 nM, respectively.

As for `CCOC(=O)c1c[nH]c2ncnc(-c3cccc(NC(=O)/C(C)=C/c4ccccc4)c3)c12` [Example 5-43, ethyl 4-(3-{[(2E)-2-methyl-3-phenylprop-2-enoyl]amino}phenyl)-7H-pyrrolo[2,3-d]pyrimidine-5-carboxylate], the IC50 at JAK3 (given as range class) is 10 to 500 nM; on JAK2 (given as range class), > 500 nM.
